This is an account of results in patent US11685734B2, “ATM kinase inhibitors and compositions and methods of use thereof” (CHDI Foundation, Inc., priority 2019, dated 2023).

One may read the pIC50 as the negative decadic logarithm of the IC50, by convention in mol/L.

The target in experiment [1] is Recombinant, full length human FLAG-tagged ATM (Homo sapiens (Human), UniProt Q13315). Briefly: ATM ELISA for p53 S15 phosphorylation. The experiment is classed as biochemical. The settings on record: for pIC50: 0.75 nM ATM, 25 nM p53, 10 μM ATP, 30 min at 20° C., read-out: ATM BIO IC50. How it is done:
ATM: Recombinant, full length human FLAG-tagged ATM activity (Eurofins 14-933) was measured in an ELISA for p53 S15 phosphorylation, in a 384 well V-bottom polypropylene plate (Greiner Bio One 781280). Reactions contained 0.75 nM ATM, 25 nM full length myc tagged p53 (Eurofins 23-034), 10 μM UltraPure ATP (Promega V915B) and serial dilutions of inhibitors (0.1% DMSO final) in 25 mM HEPES, pH 7.5. 5 mM MgCl2, 2.5 mM MnCl2, 0.006% Brij-35, 0.5% glycerol, 0.1 mg/ml BSA, 0.5 mM DTT and were allowed to proceed for 30 min at 20° C. 70 mM EDTA final terminated the kinase reactions. An aliquot of the terminated reaction (25 μl) was transferred to a 384-well, high binding microplate (Greiner Bio One 781061), precoated with anti-myc capture antibody overnight (Millipore 05-724) diluted in 1:1000 in PBS, then blocked with Odyssey blocking buffer (LI-COR Biosciences 92740000) for 60 min at 20° C. The terminated reaction was allowed to capture for 2 h at 20° C. Phosphorylation was measured using an antibody specific to p53 S15 phosphorylation (1:5000 Abcam ab38497), anti-rabbit HRP (1:1000 Cell Signalling Technology, 7074) and TMB (ab171522). Antibodies were diluted in Odyssey blocking buffer and incubated for 60 min at 20° C. Three washes with PBS containing 0.05% (v/v) Tween 20 (PBS-T) were performed between each incubation. The TMB reaction was stopped with an equal volume of 0.2 M sulfuric acid and absorbance read at 450 nm on the Perkin Elmer Envision within 30 min of terminating the reaction. […] IC50 values represent the mean from at least two independent experiments.

The target in experiment [2] is cellular ATM activity (Homo sapiens (Human), UniProt Q13315). Description: Inhibition of cellular ATM activity: etoposide-stimulated KAP1 phosphorylation in U20S cells. Particulars: 100 μM etoposide, 60 min, read-out: ATM CELL IC50. The class given is cell-based. How it is done: Inhibition of cellular ATM activity was determined by changes in etoposide-stimulated KAP1 phosphorylation, based on the work of Guo et al. 2014.
Cryopreserved U20S cells were plated overnight at 6 k cells/well in black walled, clear bottomed 384 well plates (Greiner Bio One 781090). After overnight incubation (37 C, 5% CO2), cells were incubated with titrations of test compounds (0.3% DMSO final) in the presence of 100 μM etoposide (Sigma E1383) to stimulate ATM via induction of double stranded DNA breaks. After 60 min, cells were fixed using 100% cold methanol and incubated at −20° C. for 10 min. Fixed cells were washed with PBS containing 0.05% (v/v) Tween 20 (PBS-T) prior to a 60 minute blocking step in Odyssey blocking buffer (LI-COR Biosciences 92740000). Primary antibodies (1:1000 phosphorylated KAP1: Cell Signalling Technology 4127, 1:5000 total KAP1: Cell Signaling Technology 5868) were diluted in Odyssey blocking buffer and incubated overnight at 4° C., before addition of IRDye(R) conjugated secondary antibodies (LI-COR Biociences 926-32211, LI-COR Biosciences 926-68070) diluted 1:2000 in Odyssey blocking buffer for 60 min at room temperature and detection by LI-COR Odyssey (ImageStudio version 2.1.10, focus offset 4 mm, resolution 169 μm, lowest quality, intensities of 1 and 3 for 700 and 800 channels respectively). Immunoreactivity was quantified and the ratio of phosphorylated KAP1 calculated by dividing by the total KAP1 immunoreactivity. The percentage of inhibition was calculated for each concentration of compound using 100% (100 μM etoposide+30 μM KU-60019) and 0% effect controls (100 μM etoposide+DMSO). IC50 values represent the mean from at least two independent experiments.

pIC50: −log10 of the molar value.

Recombinant, full length human FLAG-tagged ATM, sequence (Q13315 whole entry): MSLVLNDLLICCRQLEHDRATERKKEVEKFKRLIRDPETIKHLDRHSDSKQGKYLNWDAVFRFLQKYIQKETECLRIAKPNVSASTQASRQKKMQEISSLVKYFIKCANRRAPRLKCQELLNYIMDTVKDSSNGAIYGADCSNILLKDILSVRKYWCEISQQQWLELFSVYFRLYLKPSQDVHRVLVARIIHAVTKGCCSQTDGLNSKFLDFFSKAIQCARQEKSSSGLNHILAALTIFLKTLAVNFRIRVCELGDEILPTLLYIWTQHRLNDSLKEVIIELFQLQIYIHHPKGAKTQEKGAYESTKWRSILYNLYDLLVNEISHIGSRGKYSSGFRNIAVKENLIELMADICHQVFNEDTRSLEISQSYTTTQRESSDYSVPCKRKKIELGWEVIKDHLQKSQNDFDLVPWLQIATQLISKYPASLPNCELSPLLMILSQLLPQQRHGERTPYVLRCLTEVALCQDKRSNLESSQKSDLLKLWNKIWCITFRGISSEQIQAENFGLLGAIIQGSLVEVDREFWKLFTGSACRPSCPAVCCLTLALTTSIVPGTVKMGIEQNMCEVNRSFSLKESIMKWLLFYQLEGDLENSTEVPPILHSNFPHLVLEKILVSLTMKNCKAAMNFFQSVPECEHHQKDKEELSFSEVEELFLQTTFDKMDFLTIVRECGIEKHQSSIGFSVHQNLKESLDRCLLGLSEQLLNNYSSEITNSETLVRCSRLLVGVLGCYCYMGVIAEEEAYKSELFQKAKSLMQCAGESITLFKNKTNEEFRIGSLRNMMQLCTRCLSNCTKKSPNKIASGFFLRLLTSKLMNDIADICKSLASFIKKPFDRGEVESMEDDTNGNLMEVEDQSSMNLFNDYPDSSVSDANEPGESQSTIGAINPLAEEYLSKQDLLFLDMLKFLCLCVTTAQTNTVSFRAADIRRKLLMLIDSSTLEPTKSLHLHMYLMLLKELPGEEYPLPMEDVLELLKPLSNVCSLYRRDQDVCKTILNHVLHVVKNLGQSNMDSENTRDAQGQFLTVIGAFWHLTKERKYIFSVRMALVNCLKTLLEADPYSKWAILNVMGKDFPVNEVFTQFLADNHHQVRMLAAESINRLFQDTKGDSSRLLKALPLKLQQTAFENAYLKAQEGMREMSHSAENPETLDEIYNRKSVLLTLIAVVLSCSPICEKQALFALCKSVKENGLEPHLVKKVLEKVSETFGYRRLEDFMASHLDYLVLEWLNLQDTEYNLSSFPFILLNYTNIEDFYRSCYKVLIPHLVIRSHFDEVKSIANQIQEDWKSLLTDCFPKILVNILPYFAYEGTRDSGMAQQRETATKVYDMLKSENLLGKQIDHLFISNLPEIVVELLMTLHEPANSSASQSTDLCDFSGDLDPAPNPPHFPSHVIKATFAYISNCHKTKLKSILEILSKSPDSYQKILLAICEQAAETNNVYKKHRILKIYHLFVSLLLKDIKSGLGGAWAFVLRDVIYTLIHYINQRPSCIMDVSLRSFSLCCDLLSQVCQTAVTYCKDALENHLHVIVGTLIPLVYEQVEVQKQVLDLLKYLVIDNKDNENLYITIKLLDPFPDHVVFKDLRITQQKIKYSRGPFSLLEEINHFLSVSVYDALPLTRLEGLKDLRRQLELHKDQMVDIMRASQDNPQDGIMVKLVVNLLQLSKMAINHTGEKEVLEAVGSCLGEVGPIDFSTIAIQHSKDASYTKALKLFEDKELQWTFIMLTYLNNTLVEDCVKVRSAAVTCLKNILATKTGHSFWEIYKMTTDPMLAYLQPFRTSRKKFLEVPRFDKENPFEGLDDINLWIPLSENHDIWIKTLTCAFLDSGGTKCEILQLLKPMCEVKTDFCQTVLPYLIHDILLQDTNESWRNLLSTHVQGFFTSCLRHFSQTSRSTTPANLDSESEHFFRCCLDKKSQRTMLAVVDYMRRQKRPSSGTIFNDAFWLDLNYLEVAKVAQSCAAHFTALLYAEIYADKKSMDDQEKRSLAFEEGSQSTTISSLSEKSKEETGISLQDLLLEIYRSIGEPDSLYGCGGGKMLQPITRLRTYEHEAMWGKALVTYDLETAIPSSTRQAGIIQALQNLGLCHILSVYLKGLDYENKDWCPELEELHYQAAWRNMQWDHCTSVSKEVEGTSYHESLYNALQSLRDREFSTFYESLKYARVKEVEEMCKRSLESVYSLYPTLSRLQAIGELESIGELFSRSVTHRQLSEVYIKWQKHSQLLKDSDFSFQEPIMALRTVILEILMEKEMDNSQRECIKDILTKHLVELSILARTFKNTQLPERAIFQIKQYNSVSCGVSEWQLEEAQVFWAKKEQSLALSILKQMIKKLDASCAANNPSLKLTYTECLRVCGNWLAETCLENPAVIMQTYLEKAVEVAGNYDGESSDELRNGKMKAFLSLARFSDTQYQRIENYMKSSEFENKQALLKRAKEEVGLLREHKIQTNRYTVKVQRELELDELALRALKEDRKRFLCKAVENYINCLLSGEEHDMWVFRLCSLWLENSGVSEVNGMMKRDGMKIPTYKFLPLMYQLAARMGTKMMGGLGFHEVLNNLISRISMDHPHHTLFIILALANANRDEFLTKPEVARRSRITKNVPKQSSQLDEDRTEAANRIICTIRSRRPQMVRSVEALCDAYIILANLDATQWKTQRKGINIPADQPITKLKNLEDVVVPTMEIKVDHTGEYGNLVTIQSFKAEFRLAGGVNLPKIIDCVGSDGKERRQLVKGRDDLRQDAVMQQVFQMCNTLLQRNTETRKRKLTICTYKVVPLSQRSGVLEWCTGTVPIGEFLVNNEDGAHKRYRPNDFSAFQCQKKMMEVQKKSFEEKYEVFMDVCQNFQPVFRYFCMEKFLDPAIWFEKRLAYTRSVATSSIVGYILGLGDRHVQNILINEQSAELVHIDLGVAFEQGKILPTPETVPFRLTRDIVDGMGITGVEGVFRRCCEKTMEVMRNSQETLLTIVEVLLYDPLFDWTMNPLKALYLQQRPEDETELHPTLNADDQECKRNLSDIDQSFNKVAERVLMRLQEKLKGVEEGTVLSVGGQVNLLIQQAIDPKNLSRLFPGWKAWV
cellular ATM activity, sequence (Q13315 whole entry): as above

Consider `C[C@@H]1CN(c2cc(N3[C@@H]4CC[C@@H](C4)[C@@H]3Cc3ccccc3)[nH]c(=O)c2)CCO1` [Example 117, 6-((1R,3S,4S)-3-benzyl-2-azabicyclo[2.2.1]heptan-2-yl)-4-((R)-2-methylmorpholino) pyridin-2(1H)-one], for which the negative-log IC50 (pIC50) in experiment [1] is 7.14; in experiment [2] it was 6.16.

As for `COCCOc1ccc(C[C@H]2CCCCCN2c2nc(N3CCO[C@H](C)C3)cc(=O)[nH]2)cc1` [Example 309, 2-((R)-2-(4-(2-methoxyethoxy)benzyl)azepan-1-yl)-6-((R)-2-methylmorpholino)pyrimidin-4(3H)-one], the values for the pIC50 in experiment [1] and in experiment [2] were 8.21 and 6.59, respectively.

For the molecule `C[C@@H]1CCN(c2nc(N3CCOCC3)cc(=O)[nH]2)[C@H]1Cc1ccccc1` [Example 215], the pIC50 in experiment [1] is 9.00; in experiment [2], 7.13.

`COc1ccccc1C[C@H]1[C@H]2C[C@H]2CN1c1cc(N2CCOCC2)cc(=O)[nH]1` [Example 128]: the results for the pIC50 in experiment [1] and in experiment [2] were 7.83 and 6.15, respectively.

With `C[C@@H]1CN(c2cc(=O)[nH]c(N3CCC(F)(F)[C@@H]3Cc3ccccc3)n2)CCO1` [Example 322, 2-((S)-2-benzyl-3,3-difluoropyrrolidin-1-yl)-6-((R)-2-methylmorpholino)pyrimidin-4(3H)-one], the pIC50 was 7.48 in experiment [1] and 5.55 in experiment [2].

Turning to `COc1ccc(C[C@H]2CCCN2c2cc(N3CCOCC3)cc(=O)[nH]2)cc1` [Example 13, (R)-6-(2-(4-methoxybenzyl)pyrrolidin-1-yl)-4-morpholino pyridin-2(1H)-one], the results for the pIC50 in experiment [1] and in experiment [2] were 7.15 and 5.35, respectively.

For `C[C@H]1CCCN(c2nc(N3CCO[C@H](C)C3)cc(=O)[nH]2)[C@@H](Cc2ccc(F)cc2)C1` [Example 313, 2-((2R,4S)-2-(4-fluorobenzyl)-4-methylazepan-1-yl)-6-((R)-2-methylmorpholino)pyrimidin-4(3H)-one], the figures for the pIC50 in experiment [1] and in experiment [2] were 7.37 and 5.78, respectively.

`C[C@H]1CCCN(c2nc(N3CCO[C@H](C)C3)cc(=O)[nH]2)[C@@H](Cc2ccccc2)C1` [Example 312, 2-((2R,4S)-2-benzyl-4-methylazepan-1-yl)-6-((R)-2-methylmorpholino)pyrimidin-4(3H)-one]: the pIC50 in experiment [1] was 7.35; in experiment [2], 5.76.

`O=c1cc(N2CCOCC2)cc(N2CCC(F)(F)[C@@H]2Cc2ccccc2)[nH]1` [Example 98, (S)-6-(2-benzyl-3,3-difluoropyrrolidin-1-yl)-4-morpholinopyridin-2(1H)-one]: the negative-log IC50 (pIC50) in experiment [1] is 7.42; in experiment [2] it was 6.03.

In the case of `Cc1ccc(C[C@H]2CCCN2c2cc(N3CCOCC3)cc(=O)[nH]2)cc1` [Example 20, (R)-6-(2-(4-methylbenzyl)pyrrolidin-1-yl)-4-morpholinopyridin-2(1H)-one], the pIC50 in experiment [1] was 7.27; in experiment [2] it was 5.53.

Turning to `COc1cc(F)ccc1C[C@H]1CCCCCN1c1nc(N2CCOCC2)cc(=O)[nH]1` [Example 228], the pIC50 is 7.16 in experiment [1] and 6.12 in experiment [2].

Take `COc1ccccc1CC1CC(F)(F)CCCN1c1nc(N2CCOCC2)cc(=O)[nH]1` (stereo not shown) [Example 239]: the pIC50 in experiment [1] is 7.44; in experiment [2], 5.70.

Turning to `CC1C[C@H](Cc2ccccc2)N(c2nc(N3CCO[C@H](C)C3)cc(=O)[nH]2)C1` (single isomer, unassigned) [Example 320], the figures for the pIC50 in experiment [1] and in experiment [2] were 7.04 and 5.78, respectively.

`C[C@@H](c1ccccc1)[C@@H]1CCCN1c1nc(N2CCOCC2)cc(=O)[nH]1` [Example 250, 6-morpholino-2-((S)-2-((S)-1-phenylethyl)pyrrolidin-1-yl)pyrimidin-4(3H)-one]: the pIC50 was 8.30 in experiment [1] and 6.82 in experiment [2].

As for `Cn1c(N2CCC[C@@H]2Cc2ccccc2)cc(N2CCOCC2)cc1=O` [Example 173, (R)-6-(2-benzylpyrrolidin-1-yl)-1-methyl-4-morpholinopyridin-2(1H)-one], the pIC50 in experiment [1] was 7.42; in experiment [2], 5.72.

On to `COc1ccc(F)cc1C[C@H]1CCCCCN1c1cc(N2CCOCC2)cc(=O)[nH]1` [Example 86], for which the pIC50 in experiment [1] is 7.19; in experiment [2], 5.86.

For the molecule `Cc1ccccc1C[C@H]1CCCCCN1c1nc(N2CCOCC2)cc(=O)[nH]1` [Example 181, (R)-2-(2-(2-methylbenzyl)azepan-1-yl)-6-morpholinopyrimidin-4(3H)-one], the pIC50 is 8.92 in experiment [1] and 6.26 in experiment [2].

For the molecule `C[C@@H]1CN(c2cc(=O)[nH]c(N3CCCCC[C@@H]3Cc3ccccc3)n2)C[C@@H](C)O1` [Example 349, 2-((R)-2-benzylazepan-1-yl)-6-((2R,6R)-2,6-dimethylmorpholino)pyrimidin-4(3H)-one], the pIC50 in experiment [1] is 8.12; in experiment [2], 6.46.

In the case of `CC1C[C@H](Cc2ccccc2)N(c2cc(N3CCOCC3)cc(=O)[nH]2)C1` (single isomer, unassigned) [Example 101, 6-((2R,4R*)-2-benzyl-4-methylpyrrolidin-1-yl)-4-morpholinopyridin-2(1H)-one], the negative logarithm of the IC50 (pIC50) in experiment [1] is 7.77; in experiment [2] it was 5.85.

On to `O=c1cc(N2CCOCC2)nc(N2CCC(F)(F)[C@@H]2Cc2ccccc2)[nH]1` [Example 253, (S)-2-(2-benzyl-3,3-difluoropyrrolidin-1-yl)-6-morpholinopyrimidin-4(3H)-one], for which the pIC50 in experiment [1] was 7.95; in experiment [2] it was 6.36.

Regarding `COc1cccc(C[C@H]2CCCCCN2c2cc(N3CCOCC3)cc(=O)[nH]2)c1` [Example 23, (R)-6-(2-(3-methoxybenzyl)azepan-1-yl)-4-morpholinopyridin-2(1H)-one], the pIC50 in experiment [1] was 8.19; in experiment [2] it was 6.28.

For the molecule `CC1(C)CCCN(c2cc(N3CCOCC3)cc(=O)[nH]2)[C@@H](Cc2ccccc2)C1` [Example 76, (R)-6-(2-benzyl-4,4-dimethylazepan-1-yl)-4-morpholinopyridin-2(1H)-one], the pIC50 is 7.15 in experiment [1] and 5.57 in experiment [2].

On to `O=c1cc(N2CCOCC2)cc(N2C[C@@H]3CCC[C@@H]3[C@@H]2Cc2ccccc2)[nH]1` [Example 124], for which the pIC50 in experiment [1] was 8.48; in experiment [2], 6.61.

`O=c1cc(N2CCOCC2)cc(N2CCCCC[C@@H]2Cc2cccc3c2OCO3)[nH]1` [Example 70, (R)-6-(2-(benzo[d][1,3]dioxol-4-ylmethyl)azepan-1-yl)-4-morpholinopyridin-2(1H)-one]: the results for the pIC50 in experiment [1] and in experiment [2] were 8.62 and 6.56, respectively.

As for `COc1cc(F)ccc1C[C@H]1CCCCCN1c1cc(N2CCOCC2)cc(=O)[nH]1` [Example 50, (R)-6-(2-(4-fluoro-2-methoxybenzyl)azepan-1-yl)-4-morpholinopyridin-2(1H)-one], the figures for the negative logarithm of the IC50 (pIC50) in experiment [1] and in experiment [2] were 7.64 and 6.01, respectively.

Consider `C[C@@H]1CN(c2cc(=O)[nH]c(N3CCC[C@@H]3Cc3ccccc3)n2)C[C@@H](C)O1` [Example 347, 2-((R)-2-benzylpyrrolidin-1-yl)-6-((2R,6R)-2,6-dimethylmorpholino)pyrimidin-4(3H)-one], for which the results for the negative-log IC50 (pIC50) in experiment [1] and in experiment [2] were 7.63 and 6.28, respectively.

Take `O=c1cc(N2CCOCC2)nc(N2CCC[C@@H]2Cc2ccc(F)cc2)[nH]1` [Example 193]: the negative-log IC50 (pIC50) in experiment [1] was 8.01; in experiment [2], 6.22.

For `O=c1cc(N2CCOCC2)cc(N2CCC[C@H]2Cc2ccccc2)[nH]1` [Example 2, (S)-6-(2-benzylpyrrolidin-1-yl)-4-morpholinopyridin-2(1H)-one], in experiment [1] (qualitative statement used for stereochemical assignment), the “biological activity in the biochemical assay” value was “lack of biological activity”.
